# Measured values reported in patent US20250255795A1, “CYCLIC PEROXIDE, OXIDATION REACTION PRODUCT, METHOD FOR PRODUCING OXIDATION REACTION PRODUCT, AND APPLICATIONS OF THESE” (MEDIPLUS PHARMA, INC., priority 2021, published 2025).
# Tests used:
# melanin in skin = assay: whitening action, melanin measurement (Mexameter MX18) on half-face application; assay type: in vivo, human; details: inferred from loss of activity after heat treatment of ozonized glycerin
# Protocol: Forty-eight healthy individuals (females, 41 years or older and 59 years or younger) participated as test subjects. The test subjects were well informed with description documents (including a consent form) in advance, and a written consent was acquired from each test subject.
# For examination of the whitening action, a test product of Example 2-1A, a test product of Example 2-1B, a test product of Reference Example 2-1A, and a test product of Reference Example 2-1B were prepared.
# The test subjects were divided into two groups below (24 test subjects in each group). Each test subject took two pushes (approximately 1 ml) of a test product on the hands and applied the test product to a specified half of the face after every face washing performed twice per day (morning and night). […]
# Each test subject was subjected to quintuple melanin measurement for freckle sites in the left and right cheeks on the day of initiation of application of test products (week 0) and 4 weeks and 8 weeks after the initiation of application. […] In addition, the changes of melanin measurement values from those at the initiation of the test were determined. Statistical test was carried out with Student t-test, and cases with p<0.05 were determined to be significant differences. […]
# TRPM2 = target: T1, TRPM2 (Homo sapiens, UniProt O94759); assay: TRP channel activation, intracellular Ca2+ in TRPM2 (expressing cells); assay type: cell-based
# T1 construct: expressed in transfected cells
# Description: The TLC1 spot product produced in “(1) Production of Oxidation Reaction Product Containing Cyclic Peroxide According to the First Mode of the Present Invention” was directly used without separation (purification) to examine the TRP channel activation. Hereinafter, […]. Hereinafter, “OG” indicates a product formed by ozone-oxidizing glycerin with an oxygen generator (ozonized glycerin). In production of “OG”, the ozone oxidation of glycerin with an oxygen generator was performed with use of a gas having an ozone concentration of approximately 37000 ppm, which had been obtained through a process in which a high concentration of oxygen (oxygen concentration: 70% or more) was given to air with an oxygen generator and the oxygen was ozonized via an ozone generator, under Conditions A below. Hereinafter, “LOG” indicates a product formed by further oxidizing “OG”. Production of “LOG” by oxidation of “OG” was performed with use of a gas having an ozone concentration of approximately 37000 ppm, which had been obtained through a process in which oxygen from an oxygen tank (oxygen concentration: 99% or more) was ozonized via an ozone generator, under Conditions B below. […]
# [1] = positive control, known activity; cited from earlier work
# [2] = general statement; cited from earlier work
# T1 sequence (O94759 whole entry): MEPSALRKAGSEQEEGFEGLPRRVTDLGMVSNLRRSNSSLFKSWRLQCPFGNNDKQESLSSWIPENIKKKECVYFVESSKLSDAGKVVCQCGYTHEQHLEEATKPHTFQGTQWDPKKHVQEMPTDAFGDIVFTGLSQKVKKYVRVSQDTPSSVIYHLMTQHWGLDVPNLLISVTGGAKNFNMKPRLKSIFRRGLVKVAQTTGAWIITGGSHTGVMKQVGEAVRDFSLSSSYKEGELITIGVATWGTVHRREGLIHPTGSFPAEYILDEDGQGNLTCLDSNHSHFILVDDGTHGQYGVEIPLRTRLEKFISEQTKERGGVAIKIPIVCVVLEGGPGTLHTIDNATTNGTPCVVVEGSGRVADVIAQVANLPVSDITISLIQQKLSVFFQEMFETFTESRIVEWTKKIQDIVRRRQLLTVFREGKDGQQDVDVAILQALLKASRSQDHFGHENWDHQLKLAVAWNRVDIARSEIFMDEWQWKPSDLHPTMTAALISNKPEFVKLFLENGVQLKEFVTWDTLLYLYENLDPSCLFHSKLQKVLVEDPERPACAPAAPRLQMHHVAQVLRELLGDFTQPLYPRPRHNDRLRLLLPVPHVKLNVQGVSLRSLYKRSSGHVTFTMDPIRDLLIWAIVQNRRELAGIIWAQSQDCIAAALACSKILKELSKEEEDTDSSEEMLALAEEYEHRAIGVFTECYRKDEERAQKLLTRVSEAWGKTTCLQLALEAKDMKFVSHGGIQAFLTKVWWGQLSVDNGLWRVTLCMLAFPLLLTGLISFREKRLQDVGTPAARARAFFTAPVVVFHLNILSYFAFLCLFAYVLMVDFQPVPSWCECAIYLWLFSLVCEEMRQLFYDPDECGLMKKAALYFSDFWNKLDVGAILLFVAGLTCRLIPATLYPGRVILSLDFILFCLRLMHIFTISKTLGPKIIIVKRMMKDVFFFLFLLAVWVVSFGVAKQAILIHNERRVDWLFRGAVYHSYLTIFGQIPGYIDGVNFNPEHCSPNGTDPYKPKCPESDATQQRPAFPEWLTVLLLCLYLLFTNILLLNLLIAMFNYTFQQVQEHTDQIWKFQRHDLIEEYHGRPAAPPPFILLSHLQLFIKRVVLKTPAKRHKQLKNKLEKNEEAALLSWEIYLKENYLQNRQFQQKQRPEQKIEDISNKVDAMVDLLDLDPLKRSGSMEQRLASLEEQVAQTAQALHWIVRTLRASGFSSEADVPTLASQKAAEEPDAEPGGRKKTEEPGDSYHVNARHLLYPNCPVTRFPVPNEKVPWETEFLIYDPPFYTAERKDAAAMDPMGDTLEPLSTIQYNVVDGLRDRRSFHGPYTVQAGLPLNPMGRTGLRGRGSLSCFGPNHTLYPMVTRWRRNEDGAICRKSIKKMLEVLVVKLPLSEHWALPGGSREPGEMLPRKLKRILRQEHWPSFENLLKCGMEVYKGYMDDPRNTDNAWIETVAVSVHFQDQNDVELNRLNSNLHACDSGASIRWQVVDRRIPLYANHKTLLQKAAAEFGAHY
smiles,measurement,setting,value
"OCC(O)C1OOCOCC1O (single isomer, unassigned) [compound of the chemical formula (1)]",whitening action (inferred active ingredient),melanin in skin,active ingredient responsible for the whitening action
"OCC(O)CO [G, glycerin]",TRP channel activation (net intracellular Ca2+ increase rates),"TRPM2; 10% by mass aqueous solution, FIG. 1-24",high TRP channel activation
same,TRP channel activation (net intracellular Ca2+ increase rates),"TRPM2; concentrations (% by mass) of the aqueous solutions changed, FIG. 1-25",higher TRP channel activation at high concentrations
"O=C(C[n+]1ccsc1)c1ccccc1.[Br-] [PTB, N-phenacylthiazolium bromide]",cleavage activity to crosslinking structures formed by AGEs,[1],known to have cleavage activity to crosslinking structures formed by AGEs
C[C@@H]1CC[C@H]2[C@@H](C)C(=O)O[C@@H]3O[C@@]4(C)CC[C@@H]1[C@]32OO4 [artemisinin],water solubility and liposolubility,[2],neither water-soluble nor liposoluble
